Tests used:
[1] = molecular target: α-glucosidase from Saccharomyces cerevisiae; assay: α-Glucosidase inhibition; type: biochemical
From the text: (§1) The materials, equipment, AChE, BuChE, α-glucosidase inhibitory, and DNA hydrolytic cleavage actions are given as supplementary information.
The inhibitory properties of the compounds on α-glucosidase were investigated according to our previously reported methods. The results were expressed as IC50 values.

[2] = molecular target: acetylcholinesterase from Electrophorus electricus (AChE) (Electrophorus electricus, UniProt O42275); assay: biochemical; details: for SI (BuChE/AChE): selective index = IC50 BuChE/AChE
From the text: as §1
(§2) The results were expressed as IC50 and selective index (SI=BuChE/AChE) values.

[3] = molecular target: T1, butyrylcholinesterase from equine serum (BuChE) (Equus caballus, UniProt P81908); assay: BuChE inhibition; type: biochemical
T1 construct: butyrylcholinesterase from equine serum (BuChE); from tissue; host or cells: equine serum
From the text: as §1, §2

AChE [4] = molecular target: T2, AChE (Electrophorus electricus, UniProt O42275); assay: AChE inhibition mechanism (Lineweaver–Burk and Dixon plots); type: biochemical; details: for Vmax: substrate acetylthiocholine iodide
From the text: Acetylthiocholine iodide was used as a substrate for AChE inhibition.

AChE [5] = molecular target: T2, AChE; assay: Compound-protein binding by UV-Vis spectroscopy; details: AChE 10 µM; BDPY-4 5, 10, 15 and 20 µM
Procedure: To determine the structural change of AChE (10 µM) induced by BDPY-4, we measured the UV-Vis spectroscopy by adding the compound (5, 10, 15, and 20 µM) into AChE solution (10 µM). AChE has an absorption peak at 282 nm due to aromatic amino acids.

T1 sequence (P81908 whole entry): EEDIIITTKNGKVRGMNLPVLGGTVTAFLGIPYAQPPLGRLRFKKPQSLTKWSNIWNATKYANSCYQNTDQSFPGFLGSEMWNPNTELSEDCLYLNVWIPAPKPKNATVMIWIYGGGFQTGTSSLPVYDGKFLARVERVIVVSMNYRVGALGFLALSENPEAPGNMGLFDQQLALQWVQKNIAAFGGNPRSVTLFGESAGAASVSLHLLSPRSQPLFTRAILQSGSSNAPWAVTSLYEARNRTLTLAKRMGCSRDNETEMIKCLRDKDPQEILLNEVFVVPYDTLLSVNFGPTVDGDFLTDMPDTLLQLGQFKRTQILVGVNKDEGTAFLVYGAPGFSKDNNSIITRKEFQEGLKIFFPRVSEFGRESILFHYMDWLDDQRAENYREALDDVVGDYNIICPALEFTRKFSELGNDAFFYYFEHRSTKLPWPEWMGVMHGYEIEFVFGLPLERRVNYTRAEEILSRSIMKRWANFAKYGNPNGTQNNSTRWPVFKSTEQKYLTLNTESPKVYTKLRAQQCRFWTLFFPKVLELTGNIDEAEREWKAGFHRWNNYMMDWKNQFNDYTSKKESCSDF
T2 sequence (O42275 24-633): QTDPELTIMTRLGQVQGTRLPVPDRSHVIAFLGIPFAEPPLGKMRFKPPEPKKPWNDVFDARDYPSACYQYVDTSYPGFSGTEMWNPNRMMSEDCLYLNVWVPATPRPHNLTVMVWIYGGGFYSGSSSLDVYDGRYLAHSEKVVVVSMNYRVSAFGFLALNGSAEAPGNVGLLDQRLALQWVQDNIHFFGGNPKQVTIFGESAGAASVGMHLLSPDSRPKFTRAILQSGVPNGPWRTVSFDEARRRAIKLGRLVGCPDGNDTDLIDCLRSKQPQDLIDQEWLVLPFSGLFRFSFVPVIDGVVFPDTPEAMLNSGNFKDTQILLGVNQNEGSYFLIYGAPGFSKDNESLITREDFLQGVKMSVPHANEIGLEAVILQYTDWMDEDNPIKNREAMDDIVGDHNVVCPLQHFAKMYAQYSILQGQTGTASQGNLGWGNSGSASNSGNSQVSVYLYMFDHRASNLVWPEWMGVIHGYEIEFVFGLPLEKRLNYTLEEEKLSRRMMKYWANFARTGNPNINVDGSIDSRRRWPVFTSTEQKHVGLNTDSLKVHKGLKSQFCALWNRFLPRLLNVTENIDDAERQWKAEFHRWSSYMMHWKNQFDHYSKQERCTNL
Chain of acetylcholinesterase from Electrophorus electricus (AChE) (O42275 24-633): as above

Structure (SMILES) | IC50 [1] [µM] | IC50 [2] [µM] | SI (BuChE/AChE) [2] | IC50 [3] [µM] | Vmax (AChE [4]; 50 µM BDPY-4) [µM/min] | Vmax (AChE [4]; 100 µM BDPY-4) [µM/min] | Ki (AChE [4]; Dixon plot, read-out: Ki (inhibition constant)) [µM] | Inhibitory type (AChE [4]; Lineweaver–Burk plot) | Change of AChE absorbance (AChE [5]) | Shift of AChE absorption peak (AChE [5])
CC1=CC(C)=[N+]2C1=C(c1ccc(OCCCc3ccncc3)cc1)c1c(C)cc(C)n1[B-]2(F)F [BDPY-2] | 219 ± 8.71 | 72.5 ± 2.95 | 2.55 | 185 ± 5.49 |  |  |  |  |  | 
CC1=CC(/C=C/c2ccc(OCCCc3ccncc3)cc2)=[N+]2C1=C(c1ccc(OCCCc3ccncc3)cc1)c1c(C)cc(/C=C/c3ccc(OCCCc4ccncc4)cc3)n1[B-]2(F)F [BDPY-4] | 95 ± 4.77 | 54.8 ± 4.51 | 2.74 | 150 ± 6.09 | 196.08 | 126.58 | 57.2 ± 0.2 | noncompetitive inhibitor | hyperchromism | shifted from 282 nm to 285 nm
CC1=CC(/C=C/c2ccc(OCCCc3cccnc3)cc2)=[N+]2C1=C(c1ccc(OCCCc3ccncc3)cc1)c1c(C)cc(/C=C/c3ccc(OCCCc4cccnc4)cc3)n1[B-]2(F)F [BDPY-5] | 106 ± 5.03 | 64.9 ± 3.89 | 2.62 | 170 ± 4.33 |  |  |  |  |  | 
